Test results taken from PubChem BioAssay (NCI).
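How tested: cells in 96-well plates exposed to compound for 48 hours at five concentrations. Abbreviation: GI50, concentration required for 50% inhibition of growth. TGI denotes the concentration required for complete inhibition of growth.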

How the values were obtained:
Assay in all cases: NCI-60 cell line screen, 48 h
SNB-75 CNS = test system: SNB-75 CNS
KM12 colon = test system: KM12 colon
NCI-H460 lung = test system: NCI-H460 lung
CCRF-CEM leukemia = test system: CCRF-CEM leukemia
SF-268 CNS = test system: SF-268 CNS
U251 CNS = test system: U251 CNS
SK-MEL-2 melanoma = test system: SK-MEL-2 melanoma
ACHN renal = test system: ACHN renal
DU-145 prostate = test system: DU-145 prostate
HOP-92 NSCLC = test system: HOP-92 NSCLC
CAKI-1 renal = test system: CAKI-1 renal
NCI/ADR-RES ovarian = test system: NCI/ADR-RES ovarian
LOX IMVI melanoma = test system: LOX IMVI melanoma
MDA-MB-435 = test system: MDA-MB-435
PC-3 prostate = test system: PC-3 prostate
UO-31 renal = test system: UO-31 renal
OVCAR-4 ovarian = test system: OVCAR-4 ovarian
T-47D breast = test system: T-47D breast
TK-10 renal = test system: TK-10 renal
SK-OV-3 ovarian = test system: SK-OV-3 ovarian
OVCAR-8 ovarian = test system: OVCAR-8 ovarian
SN12C renal = test system: SN12C renal
K-562 leukemia = test system: K-562 leukemia
HCT-116 colon = test system: HCT-116 colon
IGROV1 ovarian = test system: IGROV1 ovarian
RXF 393 renal = test system: RXF 393 renal
A549 NSCLC = test system: A549 NSCLC
SW-620 colon = test system: SW-620 colon
MALME-3M melanoma = test system: MALME-3M melanoma
786-0 renal = test system: 786-0 renal

`CC1(C)CC[C@]2(C(=O)O)CC[C@]3(C)C(=CCC4[C@@]5(C)C[C@@H](O)[C@@H]6OC(c7ccccc7Br)OC[C@@]6(C)C5CC[C@]43C)C2C1` (some centres undefined) was tested, and the TGI (SNB-75 CNS) was over 100 µM, the GI50 (KM12 colon) was 3.91 µM and the TGI (KM12 colon) was 26.2 µM. The GI50 (NCI-H460 lung) was 2.51 µM, the TGI (NCI-H460 lung) was 9.77 µM and the GI50 (CCRF-CEM leukemia) was 3.26 µM. The TGI (CCRF-CEM leukemia) was 35.4 µM, the GI50 (SF-268 CNS) was 3.45 µM and the TGI (SF-268 CNS) was over 100 µM. It also gave a GI50 (U251 CNS) of 3.08 µM, a TGI (U251 CNS) of 14.3 µM and a GI50 (SK-MEL-2 melanoma) of 4.03 µM. For the same compound, the TGI (SK-MEL-2 melanoma) was 20.7 µM, the GI50 (ACHN renal) was 2.53 µM and the TGI (ACHN renal) was 18.7 µM. For the same compound, the GI50 (DU-145 prostate) was 3.71 µM, the TGI (DU-145 prostate) was over 100 µM and the GI50 (HOP-92 NSCLC) was 4.72 µM. The TGI (HOP-92 NSCLC) was 37.1 µM, the GI50 (CAKI-1 renal) was 3.16 µM and the TGI (CAKI-1 renal) was over 100 µM. The GI50 (NCI/ADR-RES ovarian) was 3.17 µM, the TGI (NCI/ADR-RES ovarian) was over 100 µM and the GI50 (LOX IMVI melanoma) was 3.49 µM. For the same compound, the TGI (LOX IMVI melanoma) was 13.9 µM, the GI50 (MDA-MB-435) was 3.95 µM and the TGI (MDA-MB-435) was 23.5 µM. For the same compound, the GI50 (PC-3 prostate) was 3.99 µM, the TGI (PC-3 prostate) was over 100 µM and the GI50 (UO-31 renal) was 2.68 µM. It also gave a TGI (UO-31 renal) of 12.4 µM, a GI50 (OVCAR-4 ovarian) of 3.61 µM and a TGI (OVCAR-4 ovarian) of over 100 µM. It also gave a GI50 (T-47D breast) of 3.46 µM, a TGI (T-47D breast) of over 100 µM and a GI50 (TK-10 renal) of 4.55 µM. It also gave a TGI (TK-10 renal) of over 100 µM, a GI50 (SK-OV-3 ovarian) of 3.8 µM and a TGI (SK-OV-3 ovarian) of 44.1 µM. It also gave a GI50 (OVCAR-8 ovarian) of 3.48 µM, a TGI (OVCAR-8 ovarian) of over 100 µM and a GI50 (SN12C renal) of 3.14 µM. It also gave a TGI (SN12C renal) of 17.6 µM, a GI50 (K-562 leukemia) of 2.68 µM and a TGI (K-562 leukemia) of over 100 µM. It also gave a GI50 (HCT-116 colon) of 2.65 µM, a TGI (HCT-116 colon) of 11.1 µM and a GI50 (IGROV1 ovarian) of 4.53 µM. It also gave a TGI (IGROV1 ovarian) of 30.1 µM, a GI50 (RXF 393 renal) of 4.37 µM and a TGI (RXF 393 renal) of 8.95 µM. It also gave a GI50 (A549 NSCLC) of 2.11 µM, a TGI (A549 NSCLC) of 50.1 µM and a GI50 (SW-620 colon) of 3.43 µM. It also gave a TGI (SW-620 colon) of 30.9 µM, a GI50 (MALME-3M melanoma) of 3.78 µM and a TGI (MALME-3M melanoma) of 19.3 µM. For the same compound, the GI50 (786-0 renal) was 3.61 µM and the TGI (786-0 renal) was 15.3 µM.
